{
  "source": "paper PMC10779871",
  "about": "“Anti-Trypanosomal Bufadienolides from the Oocytes of the Toad Rhinella alata (Anura, Bufonidae)” (Molecules, 2023)",
  "key": {"[1]": {"conditions": "cited from earlier work"}, "[2]": {"system": "T. cruzi trypomastigotes", "assay": "Anti-trypanosomal bioassay, T. cruzi Tulahuen clone C4 expressing β-galactosidase", "type": "cell-based, Trypanosoma cruzi", "conditions": "for EC50: Trypanosoma cruzi, 120 h, read-out: T. cruzi EC50; for Inhibition of the growth of T. cruzi trypomastigotes (in words): four concentrations, screening concentration of 10 µg/mL", "procedure": "Anti-trypanosomal bioassays were performed using the recombinant strain Tulahuen, clone C4, of T. cruzi in the form of trypomastigotes (ATCC, Manassas, VA, USA). This strain expresses the enzyme β-galactosidase. The parasites were incubated at 37 °C under an atmosphere of 5% CO2 in RPMI-1640 culture medium supplemented with L-glutamine,4-(2-hydroxyethyl)-piperazine-1-ethanesulfonic acid (HEPES) buffer, NaHCO3, 10% FBS and 0.05% gentamicin (50 mg/mL). Epithelial kidney monkey Vero cells (ATCC, Manassas, VA, USA) were incubated for 24 h and then infected with the parasites 24 h prior to the addition of the compounds. After additional 24 h of infection, the compounds (1–7) were dissolved in DMSO and tested at 10, 2, 0.4 and 0.08 µg/mL for five days. The drug benznidazole was used as a positive control. Chlorophenol-red-β-D-galactopyranoside (Roche Applied Science) was added to each well and then allowed to react with the β-galactosidase of the rest of the living parasites for 4.5 h to quantify the biological activity. Absorbance was measured at 570 nm using a plate reader (Sinergy HT, BioTek Instruments Inc., Winooski, VT, USA).\n(§1) All bioassays represent independent analysis and were carried out in duplicate. The data analysis complement Wizard of Excel 2000 (Microsoft, Seattle, WA, USA) was used for the statistical analysis of the 50% inhibiting (IC50) and cytotoxic (CC50) concentration values by adjusting the dose-response curve to a sigmoidal model."}, "[3]": {"assay": "Cytotoxicity assay (MTT) on Vero cells", "type": "cell-based", "conditions": "monkey, five days, read-out: VERO CELL CC50", "procedure": "Epithelial kidney monkey Vero cells were incubated at 37 °C in 96-well plates under an atmosphere of 5% CO2, using RPMI-1640 medium (Sigma-Aldrich, St. Louis, MO, USA) supplemented with 0.05% gentamicin (50 mg/mL) and 10% FBS (fetal bovine serum; Gibco, Invitrogen, Carlsbad, CA, USA). Cells were allowed to adhere for one day before incubation for five days with the compounds. Doxorubicin and DMSO were used as positive and negative controls, respectively. When the incubation period ended, 3-(4, 5-di-methyl-thiazol-2-yl)-2, 5-di-phenyl-tetra-zolium bromide (MTT) was added to the wells, and after 4 h, absorbance was measured at 570 nm using a color plate reader. Cytotoxicity was assessed colorimetrically by calculating the capacity of the remaining Vero cells to reduce the yellow MTT into the dark purple formazan product, as reported.\nas §1"}, "[4]": {"system": "Batrachochytrium dendrobatidis", "conditions": "cited from earlier work"}, "[5]": {"system": "(Na+)ATPase", "conditions": "cited from earlier work"}, "[6]": {"system": "T. cruzi", "set-up": "method as in PMID 32061723", "conditions": "read-out: IC50 anti-trypanosomal activity; cited from earlier work"}, "[7]": {"system": "Vero cells", "set-up": "method as in PMID 32061723", "conditions": "in comparison with bufadienolide 7; cited from earlier work"}, "[8]": {"system": "T. cruzi", "conditions": "previous study; cited from earlier work"}, "[9]": {"system": "mouse macrophages", "conditions": "cited from earlier work"}, "[10]": {"system": "erythrocytes", "conditions": "cited from earlier work"}, "[11]": {"conditions": "trypomastigote form, Tulahuen clone C4, five days, tested at 10, 2, 0.4 and 0.08 µg/mL"}, "[12]": {"conditions": "monkey (Vero host cells), Trypanosoma cruzi (parasite), read-out: Selectivity (CC50/EC50)"}},
  "note": "Where two headings read alike, the source gives them in different places.",
  "data": [
    {"molecule": "Clc1ccc(C2CC3CCC2N3)cn1", "note": "(stereo not drawn) [epibatidine]", "values": [
      {"measurement": "Analgesic potency relative to morphine", "setting": "[1]", "value": "200 times more potent than morphine"}
    ]},
    {"molecule": "CCC(=O)OC1C(c2ccc(=O)oc2)C2(C)CCC3C(CCC4(O)CC(O)CCC34C=O)C23OC13", "note": "(stereo not drawn) [Compound 3, 19-formyl-dyscinobufotalin]", "values": [
      {"measurement": "EC50", "setting": "[2]; [11]", "value": "0.19 ± 0.07", "unit": "µM"},
      {"measurement": "Inhibition of the growth of T. cruzi trypomastigotes (in words)", "setting": "[2]", "value": "reduce the growth"},
      {"measurement": "selectivity ratio", "setting": "[2]; [12]", "value": 1.16},
      {"measurement": "CC50", "setting": "[3]", "value": "0.22 ± 0.09", "unit": "µM"}
    ]},
    {"molecule": "COc1cccc2c1C(=O)c1c(O)c3c(c(O)c1C2=O)C[C@@](O)(C(=O)CO)C[C@@H]3O[C@H]1C[C@H](N)[C@H](O)[C@H](C)O1", "note": "[Doxorubicin, reference compound]", "values": [
      {"measurement": "CC50", "setting": "[3]", "value": 0.23, "unit": "µM"}
    ]},
    {"molecule": "CC12CCC3C(CCC4(O)CC(O)CCC34C=O)C1(O)CC(O)C2c1ccc(=O)oc1", "note": "(stereo not drawn) [Compound 1, 16β-hydroxyl-hellebrigenin]", "values": [
      {"measurement": "EC50", "setting": "[2]; [11]", "value": "22.8 ± 4.11", "unit": "µM"},
      {"measurement": "Inhibition of the growth of T. cruzi trypomastigotes (in words)", "setting": "[2]", "value": "reduce the growth"},
      {"measurement": "selectivity ratio", "setting": "[2]; [12]", "value": "> 5"},
      {"measurement": "CC50", "setting": "[3]", "value": "> 135", "unit": "µM"}
    ]},
    {"molecule": "C[C@]12CC[C@H](O)C[C@H]1CC[C@@H]1[C@@H]2[C@H](O)C(=O)[C@]2(C)[C@@H](c3ccc(=O)oc3)CC[C@]12O", "note": "[Arenobufagin]", "values": [
      {"measurement": "Inhibition of Batrachochytrium dendrobatidis in vitro (in words)", "setting": "[4]", "value": "inhibit"}
    ]},
    {"molecule": "C[C@@H]1O[C@@H](O[C@H]2C[C@@H](O)[C@]3(CO)[C@H]4[C@H](O)C[C@]5(C)[C@@H](C6=CC(=O)OC6)CC[C@]5(O)[C@@H]4CC[C@]3(O)C2)[C@H](O)[C@H](O)[C@H]1O", "note": "[ouabain]", "values": [
      {"measurement": "Inhibition of enzymatic activity of (Na+)ATPase (in words)", "setting": "[5]", "value": "not inhibited"}
    ]},
    {"molecule": "C[C@]12CC[C@H](O)C[C@H]1CC[C@@H]1[C@@H]2CC[C@]2(C)[C@@H](c3ccc(=O)oc3)[C@@H](O)C[C@]12O", "note": "[Compound 2, desacetyl-bufotalin]", "values": [
      {"measurement": "T. cruzi EC50", "setting": "[2]; [11]", "value": "Inactive"},
      {"measurement": "CC50", "setting": "[3]", "value": "> 28", "unit": "µM"},
      {"measurement": "melting point", "value": 71, "unit": "°C"}
    ]},
    {"molecule": "C[C@]12CC[C@H](O)C[C@H]1CC[C@@H]1[C@@H]2CC[C@]2(C)[C@@H](c3ccc(=O)oc3)CC[C@]12O", "note": "[Compound 7, bufalin]", "values": [
      {"measurement": "EC50", "setting": "[2]; TULAHUEN", "value": "3.93 ± 0.57", "unit": "µM"},
      {"measurement": "Selectivity (CC50/EC50)", "setting": "[2]; cytotoxicity on Vero cells/anti-trypanosomal activity ratio", "value": 2.69},
      {"measurement": "Inhibition of the growth of T. cruzi trypomastigotes (in words)", "setting": "[2]", "value": "reduce the growth"},
      {"measurement": "selectivity ratio at 5 days", "setting": "[2]; monkey (Vero host cells), Trypanosoma cruzi (parasite), cytotoxicity on Vero cells/anti-trypanosomal activity ratio, read-out: Selectivity (CC50/EC50)", "value": 2.7},
      {"measurement": "CC50 at 5 days", "setting": "[3]", "value": "10.6 ± 1.54", "unit": "µM"}
    ]},
    {"molecule": "C[C@]12CC[C@H]3[C@@H](CC[C@@H]4C[C@@H](O)CC[C@@]43CO)[C@@]1(O)CC[C@@H]2c1ccc(=O)oc1", "note": "[19-hydroxy-bufalin]", "values": [
      {"measurement": "IC50", "setting": "[6]", "value": 19.4, "unit": "µM"},
      {"measurement": "Cytotoxicity against Vero cells (in words)", "setting": "[7]", "value": "low cytotoxicity"}
    ]},
    {"molecule": "CCC(=O)OC1C(c2ccc(=O)oc2)C2(C)CCC3C(CCC4(O)CC(O)CCC34C)C23OC13", "note": "(stereo not drawn) [Compound 6, dyscinobufotalin]", "values": [
      {"measurement": "EC50", "setting": "[2]; [11]", "value": "12.3 ± 1.87", "unit": "µM"},
      {"measurement": "Inhibition of the growth of T. cruzi trypomastigotes (in words)", "setting": "[2]", "value": "reduce the growth"},
      {"measurement": "selectivity ratio", "setting": "[2]; [12]", "value": "< 0.01"},
      {"measurement": "CC50", "setting": "[3]", "value": "0.02 ± 0.002", "unit": "µM"}
    ]},
    {"molecule": "O=C(Cn1ccnc1[N+](=O)[O-])NCc1ccccc1", "note": "[Benznidazole, reference compound]", "values": [
      {"measurement": "EC50", "setting": "[2]; [11]", "value": "2.73 ± 0.1", "unit": "µM"},
      {"measurement": "selectivity ratio", "setting": "[2]; [12]", "value": 18.8},
      {"measurement": "CC50", "setting": "[3]", "value": "51.4 ± 6", "unit": "µM"}
    ]},
    {"molecule": "CC(=O)O[C@H]1C[C@]2(O)[C@@H]3CC[C@@H]4C[C@@H](O)CC[C@]4(C)[C@H]3CC[C@]2(C)[C@H]1c1ccc(=O)oc1", "note": "[Compound 4, bufotalin]", "values": [
      {"measurement": "EC50", "setting": "[2]; [11]", "value": "19.6 ± 2", "unit": "µM"},
      {"measurement": "Inhibition of the growth of T. cruzi trypomastigotes (in words)", "setting": "[2]", "value": "reduce the growth"},
      {"measurement": "selectivity ratio", "setting": "[2]; [12]", "value": "> 2"},
      {"measurement": "CC50", "setting": "[3]", "value": "> 46", "unit": "µM"}
    ]},
    {"molecule": "C[C@]12CC[C@H](O)C[C@@]1(O)CC[C@@H]1[C@@H]2CC[C@]2(C)[C@@H](c3ccc(=O)oc3)CC[C@]12O", "note": "[telocinobufagin]", "values": [
      {"measurement": "Trypanocidal activity", "setting": "[8]", "value": "inactive"},
      {"measurement": "Inhibition of Batrachochytrium dendrobatidis in vitro (in words)", "setting": "[4]", "value": "inhibit"},
      {"measurement": "Cytotoxicity on mouse macrophages (in words)", "setting": "[9]", "value": "no toxic effects"},
      {"measurement": "Cytotoxicity on erythrocytes (in words)", "setting": "[10]", "value": "no toxic effects"}
    ]},
    {"molecule": "C[C@]12CC[C@H](O)C[C@H]1CC[C@@H]1[C@@H]2[C@H](O)C[C@]2(C)[C@@H](c3ccc(=O)oc3)CC[C@]12O", "note": "[γ-bufotalin]", "values": [
      {"measurement": "Inhibition of Batrachochytrium dendrobatidis in vitro (in words)", "setting": "[4]", "value": "inhibit"}
    ]},
    {"molecule": "CC(=O)O[C@H]1[C@H]2O[C@]23[C@@H]2CC[C@]4(O)C[C@@H](O)CC[C@]4(C)[C@H]2CC[C@]3(C)[C@H]1c1ccc(=O)oc1", "note": "[Compound 5, cinobufotalin]", "values": [
      {"measurement": "EC50", "setting": "[2]; [11]", "value": "27.8 ± 3.77", "unit": "µM"},
      {"measurement": "Inhibition of the growth of T. cruzi trypomastigotes (in words)", "setting": "[2]", "value": "reduce the growth"},
      {"measurement": "selectivity ratio", "setting": "[2]; [12]", "value": 0.07},
      {"measurement": "CC50", "setting": "[3]", "value": "1.88 ± 0.2", "unit": "µM"}
    ]},
    {"molecule": "C[C@]12CC[C@H]3[C@@H](CC[C@]4(O)C[C@@H](O)CC[C@]34C=O)[C@@]1(O)CC[C@@H]2c1ccc(=O)oc1", "note": "[hellebrigenin]", "values": [
      {"measurement": "Trypanocidal activity", "setting": "[8]", "value": 91.7, "unit": "µg/mL"},
      {"measurement": "Cytotoxicity on mouse macrophages (in words)", "setting": "[9]", "value": "no toxic effects"},
      {"measurement": "Cytotoxicity on erythrocytes (in words)", "setting": "[10]", "value": "no toxic effects"}
    ]}
  ]
}
